From paper PMC9558053, “Development of a novel high-throughput screen for the identification of new inhibitors of protein S-acylation” (The Journal of Biological Chemistry, 2022)

Molecular target: T1, human zDHHC15 (Homo sapiens, UniProt Q96MV8)
T1 construct: expressed in transfected cells; host or cells: HEK293T
T1 sequence (Q96MV8 1-337): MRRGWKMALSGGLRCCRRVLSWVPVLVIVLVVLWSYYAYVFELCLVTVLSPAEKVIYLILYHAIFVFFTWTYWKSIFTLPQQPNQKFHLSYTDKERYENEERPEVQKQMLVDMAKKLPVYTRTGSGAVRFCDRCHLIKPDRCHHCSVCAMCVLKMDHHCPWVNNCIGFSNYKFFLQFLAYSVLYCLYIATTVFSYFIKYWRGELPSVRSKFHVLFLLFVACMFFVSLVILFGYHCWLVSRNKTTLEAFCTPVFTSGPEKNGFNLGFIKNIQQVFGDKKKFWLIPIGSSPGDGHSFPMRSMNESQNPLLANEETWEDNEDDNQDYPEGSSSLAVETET
Assay: GFP-SNAP25b S-acylation in HEK293T cells co-expressing zDHHC15
Assay type: cell-based
Details: HEK-293T; in cellulo HEK293T, compound 25 μM; read-out: SNAP25 S-acylation inhibition (%), zDHHC15
Method: We next investigated whether the identified compounds were effective at inhibiting zDHHC enzyme isoforms other than zDHHC2 (Fig. 6 and Table 1). […] We therefore treated cells coexpressing GFP-SNAP25 and each of these zDHHC enzymes with 25 μM of TTZ-1 and TTZ-2 and studied the subsequent effect on SNAP25 S-acylation. […] Importantly, the level of enzyme expression was unaffected by the compounds. […] As any major differences in the expression levels of the different enzymes could in theory contribute to the apparent differential effects of TTZ-1 and TTZ-2, we directly compared the expression of zDHHC2, zDHHC3, zDHHC7, zDHHC15, and zDHHC17 when transfected in HEK293T cells together with GFP-SNAP25.
Figure 6 Activity of TTZ-1 and TTZ-2 against SNAP25 S-acylation by human zDHHC2, zDHHC3, zDHHC7, zDHHC15, and zDHHC17 expressed in mammalian cells.A–E, HEK293T cells were transfected with a plasmid encoding GFP-SNAP25b together with either a control plasmid pEF-BOS-HA (pEF) or a plasmid encoding either HA-tagged human zDHHC2 (zD2) (A), zDHHC3 (zD3) (B), zDHHC7 (zD7) (C), zDHHC15 (zD15) (D), or zDHHC17 (zD17) (E) for 24 h. […] Three independent experiments were performed either in duplicate or in triplicate, and the quantification data were gathered on the graphs below each set of membranes. […]

SMILES | inhibition at 25 µM
O=C(Nc1cccc2c1OC(c1nnn[nH]1)CN2)c1ccc(OCCCCc2ccccc2)cc1 (centres unmarked) [TTZ-2, N-(2-(1H-Tetrazol-5-yl)-3,4-dihydro-2H-benzo[b][1,4]oxazin-8-yl)-4-(4-phenylbutoxy)benzamide] | 93 ± 6%
CCCCCCCOc1ccc(C(=O)Nc2cccc3c2OC(c2nnn[nH]2)CN3)cc1 (centres unmarked) [TTZ-1, N-(2-(1H-Tetrazol-5-yl)-3,4-dihydro-2H-benzo[b][1,4]oxazin-8-yl)-4-(heptyloxy)benzamide] | 112 ± 6%
